Experimental data reported in patent US5789384A, “Pharmaceutical dipeptide compositions and methods of use thereof” (priority 1995, dated 1998).

Details: in vivo

Compound: CC[C@H](C)[C@H](N)C(=O)N[C@@H](Cc1c[nH]c2ccccc12)C(=O)O [Ile-Trp, L-Ile-L-Trp]
- side effects from the use of the dipeptide: not found any significant side effects
